Assay results as given in patent publication US20210254138A1, “SIALIC ACID TRANSPORTER PROTEINS AS BIOMARKERS AND DRUG TARGETS” (Quadram Institute Bioscience, priority 2018, published 2021).
“Also recorded” adds a separate entry of the source.

Experiments:
[1] = tested on: RgSBP (RUMGNA_02698, solute binding protein); experiment: Fluorescence spectroscopy of ligand binding to RgSBP; design: species or system R. gnavus ATCC 29149; settings: for change in fluorescence emission at 350 nm upon sequential additions of ligand: sequential additions of 10 μM ligand
Method: Ligand binding to RgSBP was investigated by measuring changes in the intrinsic protein fluorescence upon addition of 2,7-anhydro-Neu5Ac or Neu5Ac as potential ligands. (Andrew Bell with help from student in Gavin Thomas's Group,York). Due to the presence of […] in RgSBP, fluorescence changes were measured by exciting at 297 nm. Under these conditions the protein has a maximal emission at 331 nm. […] 2,7-Anhydro-Neu5Ac caused a 16% quench in the fluorescence of the protein at ligand saturation (FIG. 3A).
The binding of RgSBP to 2,7-anhydro-Neu5Ac or Neu5Ac was further investigated by measuring changes in fluorescence emission at 350 nm when RgSBP was excited at 297 nm upon sequential additions of 10 μM ligands.
All protein fluorescence experiments used a FluoroMax 3 fluorescence spectrometer with connecting water bath at 37° C. Because of the presence of 15 […] residues, the protein was excited at 297 nm with slit widths of 5 nm. […] Cumulative fluorescence changes from titration of the protein with ligand were plotted in GraphPad and fitted to a single rectangular hyperbola. The Kd values reported were averaged from three separate ligand titration experiments.
To determine the specificity of the predicted transporter, the gene encoding the predicted SBP was amplified by PCR from the R. gnavus ATCC 29149 genome, cloned into the pHISTEV expression vector, heterologously expressed in E. coli and the His6-tag recombinant protein purified by immobilised metal ion affinity chromatography (IMAC). Ligand binding to RgSBP was investigated by measuring changes in the intrinsic protein fluorescence upon addition of 2,7-anhydro-Neu5Ac or Neu5Ac as potential ligands. Due to the presence of 7 tryptophan residues in RgSBP, fluorescence changes were measured by exciting at 297 nm. Under these conditions the protein has a maximal emission at 331 nm. […] To confirm the novel specificity of 2,7-anhydro-Neu5Ac over Neu5Ac we followed sequential changes in fluorescence at 350 nm following additions of 10 μM of the two ligands. […] Conversely, when 2,7-anhydro-Neu5Ac is added first the quench is observed and additions of 10 μM Neu5Ac caused no further reduction or reverse in the intensity (FIG. 3d), indicating Neu5Ac is unable to displace 2,7-anhydro-Neu5Ac, further supporting the specificity of the interaction between RgSBP and 2,7-anhydro-Neu5Ac.

[2] = biological target: RgSBP (RUMGNA_02698, solute binding protein); experiment: Isothermal titration calorimetry (ITC) of RgSBP binding; design: species or system R. gnavus ATCC 29149; settings: 50 mM Tris-HCl pH 7.5; single-binding site model; triplicate
Method: Isothermal titration calorimetry (ITC) experiments were performed using the PEAQ-ITC system (Malvern, Malvern, UK) with a cell volume of 200 μl. Prior to titration, protein samples were exhaustively dialysed into 50 mM Tris-HCl pH 7.5. The ligand was dissolved in the dialysis buffer. The cell protein concentration was 100 μM and the syringe ligand concentration was 2 mM. Controls with titrant (sugar) injected into the buffer only were subtracted from the data. The analysis was performed using the Malvern software, using a single-binding site model. Experiments were carried out in triplicate.

[3] = biological target: T1, E. coli sialic acid aldolase (EcNanA) (Escherichia coli, UniProt P0A6L4); experiment: Sialic acid aldolase activity assay coupled to lactate dehydrogenase, EcNanA; assay type: biochemical; settings: 10 mM sialic acid, 37° C., pH 7.0, A340 nm
T1 construct: purchased Carbosynth, UK CAS: 9027-60-5 (catalogue number not given)
T1 sequence (P0A6L4 whole entry): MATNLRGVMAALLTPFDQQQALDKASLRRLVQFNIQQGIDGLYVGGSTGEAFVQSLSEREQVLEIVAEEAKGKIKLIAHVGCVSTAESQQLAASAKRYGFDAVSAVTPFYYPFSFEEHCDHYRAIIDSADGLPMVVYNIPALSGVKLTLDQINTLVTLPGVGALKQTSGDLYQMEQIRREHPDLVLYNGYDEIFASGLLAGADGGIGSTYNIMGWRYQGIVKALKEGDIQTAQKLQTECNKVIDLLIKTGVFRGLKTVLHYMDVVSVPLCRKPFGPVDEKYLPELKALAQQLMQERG
Method: Aldolase cleavage was measured by monitoring the decrease in absorbance at 340 nm (A340 nm) as NADH is converted to NAD by lactate dehydrogenase in a coupled reaction where pyruvate is released from sialic acid by the aldolase. Reactions were performed in a 100 μl volume with final concentrations of 150 μM NADH (Sigma, St Louis, USA), 0.5 U LDH (Sigma, St Louis, USA), 10 mM sialic acid (Neu5Ac or 2,7-anhydro-Neu5Ac) and 1.5 μg purified RgNanA or EcNanA (E. coli aldolase CAS: 9027-60-5, Carbosynth, UK) in 50 mM Na-phosphate buffer (pH 7.0). The reactions were performed at 37° C. and monitored using FLUOstar OPTIMA (BMG LABTECH). For kinetics experiments, the sialic acid concentration was varied at 20, 10, 5, 4, 2, 1, 0.4, 0.2, 0.1 mM and the initial rate of reaction determined for each concentration in triplicate before analysis was performed by fitting the data to a Michaelis-Menten using Graph Pad Prism (V 5.03). […]
The first step of sialic acid metabolism is the conversion of sialic acid to ManNAc and pyruvate catalysed by a sialic acid aldolase (NanA). […] The substrate specificity of RgNanA was determined using a coupled activity assay where pyruvate released during the conversion of sialic acid to ManNAc is converted to lactate by a lactate dehydrogenase and the subsequent loss of absorbance at 340 nm measured as NADH is converted to NAD^+. […]

Row | SMILES | quench in the fluorescence of the protein ([1]; RgSBP excited at 297 nm, 10 μM or 20 μM ligand, ligand saturation) [%] | change in fluorescence emission at 350 nm upon sequential additions of ligand ([1]; excited at 297 nm) | Kd ([1]; titration of 0.5 μM RgSBP, triplicate, hyperbolic fit) [nM] | Kd [2] [nM] | aldolase activity against substrate [3] | change in the fluorescence emission spectra of RgSBP ([1]; excited at 297 nm, ligand at 10 μM, 20 μM or 70 μM) | Kd (ITC) [2]
1 | CC(=O)N[C@H]1C2OC(C(=O)O)(C[C@@H]1O)O[C@@H]2[C@H](O)CO (stereo partly drawn) [2,7-anhydro-Neu5Ac] | ~16 | a quench is observed; also recorded: large decrease in intensity | 1350 | 2420 ± 270 | neither enzyme showed activity |  | 
2 | CC(=O)N[C@H]1[C@H]([C@H](O)[C@H](O)CO)OC(O)(C(=O)O)C[C@@H]1O (stereo partly drawn) [Neu5Ac, N-acetylneuraminic acid] |  | no change in fluorescence is observed; also recorded: no change in intensity was observed |  |  | showed activity | did not lead to any change in the spectra | No binding was observed; also recorded: does not bind
